What all share (format): cell-based, human
One data set concerns MDA-MB-231 cells. In words: Matrigel invasion assay, MDA-MB-231 cells. On the procedure: (§1) In vitro invasion assays. For the Matrigel-invasion assay the cells were plated at the density of 5×10^4 (MDA-MB-231, U373, D54MG), 15×10^4 (T47-D) or 30×10^4 (MCF-7) cells per upper well in 750 μl of normal culture medium (Virtanen et al., Cancer Res. 62:2708-14 (2002)), indicated concentrations of the various CpG-ODNs, non-CpG-ODNs or vehicle were added to both the upper and lower wells. When indicated, aprotinin (2 μM), GM6001 (2 μM), MMP-8 inhibitor 1 (8 nM) or the same volume of the corresponding control compound, control IgG or neutralizing anti-MMP-13 antibody (R& D Systems, Minneapolis, Minn., both at 12 μg/ml) or chloroquine (10 μM) were also added to both upper and lower wells. The cells were allowed to invade for 18 h, after which the inserts were removed and stained with the Hema 3 Stain set (Fisher Diagnostics, Middletown, Pa.), according to the manufacturer's recommendation. The number of invaded cells was counted from 5 pre-selected microscopic fields using a 40× objective. To assess invasion in a three-dimensional type I collagen gel, acid solubilized type I collagen (0.9 ml) was added to the Costar Transwell dishes (Corning, Inc., Corning, N.Y.) and gelled over 45 min at 37° C. The collagen was prepared using rat-tail type 1 collagen dissolved in 0.2% acetic acid at 3.2 mg/ml and gelled by neutralizing the acid with 0.3 N NaOH containing phenol red as a pH indicator. A final concentration of 3.0 mg/ml was obtained. Media, containing vehicle or 10 μM type C CpG-ODN was men added to the upper and lower chambers prior to the addition of 5×10^5 cells to the surface of the collagen gel in the presence of serum-containing medium. […] Tumor cell invasion (depth and number of cells below the surface) was assessed by light microscopy in a minimum of four randomly selected sections for each experimental sample. The number of invading cells per high power field (400×) were counted and averaged. The depth of invasion was also measured in four randomly selected areas for each sample using photomicrograph of each sample.

For another data set, the system named is PC-3 cells. In words: Matrigel invasion assay, PC-3 cells. As to the method: In vitro invasion assays. For the Matrigel-invasion assay the cells were plated at the density of 5×10^4 (PC-3, Du-145, LnCaP and MDA PCa 2b) cells per upper well in 500 μl of normal culture medium, Indicated concentrations of the various CpG-ODNs, bacterial DNA (E. Coli, Sigma, St. Louis, Mo.) or vehicle were added to both the upper and lower wells. When indicated, p38- or JNK-inhibitor (both at final concentration of 10^−5 M), control IgG or neutralizing anti-MMP-13 antibody (R&. D Systems, Minneapolis, Minn., both at 12 μg/ml) or chloroquine (10 μM) were also added to both upper and lower wells. […] The number of invaded cells were counted from 5 pre-selected microscopic fields using a 40× objective.

Data set [1] deals with MMP-activity in MDA-MB-231 cells. As to the kind of experiment: gelatin zymogram of MDA-MB-231 supernatants. The conditions noted are these: 2 μM added to final incubation of gels. As to the method: Zymograms. The zymograms were performed as previously described (Suarex-Cuervo et al., Clin. Exp. Metastasis 21:525-33 (2004)). In this assay, the gelatinolytic bands represent the following MMPs: 120 kDa band represents MMP-9 and neutrophil gelatinase associated lipocalin complex, 90 kDa band represents pro-MMP-9 and the 72 kDa band represents proMMP-2. Briefly, MDA-MB-231 cells were plated on 12-well plates and allowed to reach confluency. The cells were then rinsed with PBS and serum-free medium, with the indicated concentrations of type C CpG-ODNs, type C non-CpG-ODNs or vehicle was applied for 24 h.

Data set [2] has as its system MCF-10A mammary epithelial cells. In words: Matrigel invasion assay, MCF-10A cells. The settings on record: 1 and 10 μM.
Data set [3] deals with MDA-MB-231, T47-D or MCF-7 cells. As to the kind of experiment: MTS cell viability assay, breast cancer cells. On the procedure: Cell viability assays. MDA-MB-231, T47-D or MCF-7 cells were plated at the density of 1000 cells/well in 96-well plates in normal culture medium, and cultured for the indicated periods of time with 10 μM type C CpG-ODN or vehicle. Cell viability was assessed after MTS was added for the final 2 hours of the experimental cultures as recommended by the manufacturer (CellTiter 96 AQueous Non-Radioactive Cell Proliferation Assay, Promega, Madison, Wis.).

In data set [4] the test system is MCF-7 breast cancer cells. As to the kind of experiment: Matrigel invasion assay, MCF-7 cells. The conditions noted are these: 1 and 10 μM. On the procedure: as §1, with “objective.” for “objective. To assess invasion in a three-dimensional type I collagen gel, acid solubilized type I collagen (0.9 ml) was added to the Costar Transwell dishes (Corning, Inc., Corning, N.Y.) and gelled over 45 min at 37° C. The collagen was prepared using rat-tail type 1 collagen dissolved in 0.2% acetic acid at 3.2 mg/ml and gelled by neutralizing the acid with 0.3 N NaOH containing phenol red as a pH indicator. A final concentration of 3.0 mg/ml was obtained. Media, containing vehicle or 10 μM type C CpG-ODN was men added to the upper and lower chambers prior to the addition of 5×10^5 cells to the surface of the collagen gel in the presence of serum-containing medium.”

The next data set concerns NFκB reporter gene. As to the kind of experiment: NFκB reporter gene assay in transfected MDA-MB-231 pools. On the procedure:
MDA-MB-231 cells were stably transfected with pIRES-EGFP empty vector (EV) or with pIRES-EGFP-TRAF6DN-Flag. Stable pools were Flow-sorted for the expression of EGFP for 3 cycles. […] The same blots were stripped and re-blotted with antibodies against Flag, GFP and actin. For FIG. 12B, the various cells were transiently transfected with a NFκB reporter gene and treated with CpG-ODN or TNF-α. Reporter gene activation was calculated as fold-increase vs. vehicle-treatment. Mean±SD, n=6. * p<0.05, *** p<0.001 pIRES-EV vs. pIRES-EGFP-TRAF6DN. For FIG. 12C, the pIRES-EGFP and pIRES-EGFP-TRAF6DN cells were plated on Matrigel-assays and treated with vehicle or with 2 or 10 μM Non-CpG-ODN or CpG-ODN, The number of invaded cells were counted microscopically 22 h later. Data are expressed as fold-increase in treatment-induced invasion, mean±sd, n±3-6. * p<0.05, ** p<0.01 pIRES-EGFP vs. pIRES-EGFP-TRAF6DN.
Stable transfection of TRAF6 into MDA-MB-231 breast cancer cells. The cDNA encoding for dominant negative TRAF6 has been described previously (Yeo et al., (2003) J. Biol. Chem. 278:22563-22573). The pIRES-EGF-DNTRAF6-Flag and pIRES-EGF were stably transfected into the MDA-MB-231 cells. The established stable pools were submitted to three cycles of Flow-sorting for highest emission of GFP, to enrich the populations of transfected cells. […]

Entries after “also recorded” stand apart in the source; their conditions may differ. Oligonucleotides are written 5' to 3', each unit as a sugar letter and its base; * is a phosphorothioate linkage, no mark a phosphodiester; rarer units and linkages stand in square brackets, end groups in braces. Plain capitals give the bases only. d = 2'-deoxy (DNA)

Regarding `CCN(CC)CCCC(C)Nc1ccnc2cc(Cl)ccc12` (stereo not drawn) [chloroquine], in the data set on MDA-MB-231 cells (chloroquine 10 μM, non-CpG-ODN 10 μM, 18 h), the “effect on non-CpG-ODN-induced invasion” value was “inhibited”. In addition, the “effect on CpG-ODN-induced invasion” value with MDA-MB-231 cells (chloroquine 10 μM, type C CpG-ODN 10 μM, 18 h) is on record as “blocked; also recorded: inhibited”. Also, the “effect of chloroquine on E. coli DNA-induced invasion of PC-3 cells” value in the data set on PC-3 cells (chloroquine 10 μM, 1000 ng/ml E. coli DNA, 20 h) is given as “inhibited”. Also, in the data set with PC-3 cells (chloroquine 10 μM, CpG-ODN 5 μM, 18 h), the “effect of chloroquine on CpG-ODN-induced invasion of PC-3 cells” value is listed as “significantly inhibited; also recorded: inhibits CpG-ODN-induced invasion”.
For the molecule aprotinin, the “effect on CpG-ODN-induced gelatinolytic band of about 50 kDa” value in data set [1] is given as “did not disappear; also recorded: not inhibited”.
With `CNC(=O)[C@H](Cc1c[nH]c2ccccc12)NC(=O)[C@@H](CC(=O)NO)CC(C)C` [GM6001], in the data set with MDA-MB-231 cells (inhibitor 2 μM, type C CpG-ODN 10 μM), the “effect on type C CpG-induced invasion of MDA-MB-231 cells” value was “inhibited CpG-ODN-induced invasion; also recorded: inhibited by the MMP inhibitor”. In addition, the “effect on CpG-ODN-induced gelatinolytic band of about 50 kDa” value in data set [1] is recorded as “abolished; also recorded: did disappear”.
For “type C non-CpG-ODN: 5′-tgc tgc tgc tig caa gca get tga t-3′ (SEQ ID NO:6), non-CpG-ODN control (DNA dT*dG*dC*dT*dG*dC*dT*dG*dC*dT*dT*dG*dC*dA*dA*dG*dC*dA*dG*dC*dT*dT*dG*dA*dT)”, the “invasion of MCF-10A cells” value is given as “stimulated invasion” in data set [2] and “induced a significant invasion response” in data set [2] (listed as non-CpG-ODN). In addition, the “cell viability (MTS), longer incubation” value in data set [3] was “significantly decreased viability”. The “invasion of TLR9 negative MCF-7 cells” value in data set [4] is “did not, however, stimulate invasion”; in data set [4] (listed as non-CpG-ODN), “no significant effect”.
Take TNF-α: the “NFκβ-promoter activity in empty vector cells” value in the data set on NFκB reporter gene (pIRES-EGFP empty vector MDA-MB-231) is “significant increase in NFκβ-promoter activity”. Also, the “NFκβ-promoter activity in TRAF6DN-pool” value in the data set on NFκB reporter gene (pIRES-EGFP-TRAF6DN MDA-MB-231) is “blunted”.
For the molecule `C[S+]([O-])c1ccc(-c2nc(-c3ccncc3)c(-c3ccc(F)cc3)[nH]2)cc1` (stereo not drawn) [p38 inhibitor, SB203580], the “effect of MAP-kinase inhibitors on CpG-ODN-induced invasion of PC-3 cells” value in the data set with PC-3 cells (inhibitor 10^−5 M, CpG-ODN 5 μM, 18 h) is reported as “Neither of these inhibitors affected CpG-ODN-induced invasion”.
